Assay results published in publication PMC5459853, “Cathepsin S inhibition combines control of systemic and peripheral pathomechanisms of autoimmune tissue injury” (Scientific Reports, 2017).

Assays:
[1] = biological target: Human Cat-V (Homo sapiens, UniProt O60911); experiment: Enzymatic isoform-selectivity assay, Cat-V; type: biochemical; details: read-out: apparent IC50, Cat V
Protocol: (§1) RO5459072 was provided by F. Hoffmann-La Roche, Ltd., Basel, Switzerland. It is a competitive inhibitor of the active site of Cat-S and its nitrile function allows covalent reversible inhibition of Cat-S. The synthesis of RO5459072 has been described in WO 2010121918 and WO 2013068434. Recombinant cathepsins were produced in-house or were purchased from commercial vendors. Initial enzymatic assays to determine isoform-selectivity in vitro were performed as previously described, [23]. […] For this the Cat-S-dependent hydrolysis of the fluorogenic substrate Z-Phe-Arg-AMC (Sigma Aldrich) was followed at various inhibitor concentrations. The active fraction of Cat-S was detemined as 70% with a HPLC assay measuring modification of Cat-S with the covalent inhibitor LHVS. The buffer (100 mM potassium phosphate, 50 mM NaCl, 5 mM EDTA, 5 mM TCEP, pH 6) was thoroughly degassed prior to perfoming measurements to prevent oxidation of the catalytic cystein residue by dissolved oxygen. For the Ki-determination the substrate was employed at 10 µM = KM. All kinetic measurements were performad on a SFM-3000 stopped-flow instrument (Bio-Logic Science Instruments) and data were analyzed with GraphPad Prism v5.

[2] = biological target: Human Cat-B (Homo sapiens, UniProt P07858); experiment: Enzymatic isoform-selectivity assay, Cat-B; type: biochemical
Protocol: as §1

[3] = tested on: diversity panel consisting of nearly 100 receptor binding and enzymatic assays; experiment: Diversity panel of receptor binding and enzymatic assays; details: 10 µM concentration; data not shown
[4] = tested on: MRL-(Fas)lpr mice; experiment: Experimental SLE and lupus nephritis, treatment week 11 to 19; type: in vivo
Protocol: Four-week-old female MRL-(Fas)lpr mice were purchased from Harlan Winkelmann (Borchen, Germany) and kept under pathogen-free conditions in a 12 hour light and dark cycle with free access to food and water. All animal experiments were performed in accordance with the European protection laws of animal welfare, and with approval by the local government authorities Regierung von Oberbayern (reference number: 55.2.1-54-2532.2-11-12). At 11 or 15 weeks of age only mice with proteinuria (Albustix, Bayer AG, Leverkusen, Germany) were randomized into five different groups (n = 10) receiving different medicated diets: Three groups were fed with chow mixed with either 3, 10 or 30 mg/kg/day RO5459072, another group’s chow was mixed with 100 mg/kg/day mycophenolate mofetil (MMF), and one group received a standard diet (vehicle). The dose of MMF was chosen according to several studies reporting strong efficacy on SLE and lupus nephritis in MRL-(Fas)lpr mice[24]–[26]. […] At the age of 19 weeks all mice were sacrificed by cervical dislocation. Blood and urine samples were collected at different time points as indicated. In other experiments 7 week old female MRL-(Fas)lpr mice were randomized into three groups (n = 3) to receive a single intravenous injection of 10 µg sterile recombinant Cat-S and one group receiving vehicle (100 µl sterile PBS). One of the Cat-S groups was pretreated with 30 mg/kg/day RO5459072 starting one week prior to Cat-S injection; another group was pretreated with a total of four daily intra-peritoneal injections of the PAR-2 inhibitor GB83 (10 mg/kg).
Kidney tissue samples were collected from all mice and fixed overnight in 4% buffered formalin. Subsequently the fixed tissue samples were embedded in paraffin and cut into 4 µm thick serial sections. Kidney paraffin sections were stained with periodic acid-Schiff (PAS) reaction using standardized protocols as described. Scoring of lupus nephritis activity and chronicity indices was performed according to human lupus nephritis, [43]. Methenamine silver staining was performed on paraffin embedded kidney sections and semiquantitatively scored form 0–3 by a blinded observer. For immunostaining the following primary antibodies were used: anti-mouse CD3 (Abcam, Cambridge, UK), complement C3c (Biobyt Ltd, Cambridge, UK), CD31 (Dianova GmbH, Hamburg, Germany), WT1 (Santa Cruz Biotechnology, Dallas, Texas) and nephrin (Acris Antibodies, San Diego, CA). The immunostaining for C3c and CD31 were analyzed using the ImageJ software by measuring positively stained area and dividing it by the total area of the glomerulus and reported as percentage of +ve area. Sections stained for WT1/nephrin and CD3 were evaluated by counting positive cells per glomerulus. All the morphometric analysis were carried out in a blinded fashion.
Urinary albumin/creatinine ratios were determined using the Mouse Albumin ELISA Quantitation set (Bethyl Laboratories, Montgomery, TX) and the Creatinine FS kit (DiaSys Diagnostic Systems, Holzheim, Germany)[44]. BUN levels were determined in plasma samples using a Urea FS kit (DiaSys Diagnostic Systems). Mouse IgM, IgG and its isotypes IgG1, IgG2a and IgG2b plasma levels were measured using ELISA Sets (Bethyl Laboratories) at a plasma dilution of 1:1,000 to 1:100,000. Double-stranded DNA IgG and IgM antibodies were quantified as described. Briefly, 96 well Nunc-Immuno plates (Thermo Fisher Scientific, Roskilde, Denmark) were coated with poly-L-lysine (1:1 diluted with PBS) and incubated for two hours. After washing the plates, the plates were coated with 1 µg/ml mouse tail dsDNA sparing the wells for standards, which were coated with anti-mIgG and anti-mIgM (Bethyl Laboratories). The standard curve was fixed from purified mIgG and mIgM (Bethyl Laboratories). The plasma samples were diluted 1:1,000 and added into the wells. After 1 h the assay was developed using HRP-labelled goat anti-mIgG and anti-mIgM and TMB substrate (BD Bioscience, San Diego, CA). […]

Chain of Human Cat-V (O60911 114-334): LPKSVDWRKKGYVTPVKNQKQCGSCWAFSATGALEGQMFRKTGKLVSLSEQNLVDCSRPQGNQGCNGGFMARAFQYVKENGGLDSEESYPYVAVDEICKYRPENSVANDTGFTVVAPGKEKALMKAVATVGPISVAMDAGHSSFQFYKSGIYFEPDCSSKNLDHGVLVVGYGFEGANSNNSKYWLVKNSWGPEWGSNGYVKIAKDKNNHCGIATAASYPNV

## Cn1cc(-c2ccc(S(=O)(=O)[C@@H]3C[C@@H](C(=O)NC4(C#N)CC4)N(C(=O)C4(C(F)(F)F)CC4)C3)c(C(F)(F)F)c2)cn1 [RO5459072]
[1]
  IC50: 700 nM
[2]
  IC50: > 1000 nM
  IC50, Human Cat-B: No sub-micro molar inhibition
[3]
  inhibition on diversity panel: ≤ 30%
[4]; flow cytometry of kidneys
  intrarenal mononuclear phagocyte and T cell subsets: suppressed
[4]; highest dose of RO5459072 versus MMF
  reduction of urinary albumin/creatinine (A/C) ratio more than MMF: 2 log scales
[4]; highest dose, week 19
  plasma levels of antinuclear antibodies: suppressed
[4]; medicated diets, throughout the study period
  food intake or body weight between groups: no significant difference
[4]; real time PCR, kidney
  intrarenal mRNA expression of IL-6, MCP-1/CCL2, RANTES/CCL5 and CXCL2: suppressed
  intrarenal mRNA expression of TNF-α, IFN-γ and SDF-1/CXCL12: remained unaffected
[4]; week 11-19
  blood urea nitrogen (BUN) over time: prevented the progressive increase
  podocyte number and proteinuria: protective effect
[4]; week 11-19, ELISA
  dsDNA IgM: did not affect
  total levels of plasma IgM: did not affect
[4]; week 11-19, RO5459072 3, 10, 30 mg/kg/day, MMF 100 mg/kg/day
  spleen plasma cells and plasma IgG levels and IgG isotypes: dose-dependently suppressed
[4]; week 11-19, RO5459072 highest dose, MMF 100 mg/kg/day, ELISA
  plasma dsDNA IgG levels (IgG autoantibodies): suppress plasma dsDNA IgG levels below baseline
[4]; week 11-19, flow cytometry
  spleen CD11c+/CD11b+/MHCII+ antigen-presenting cells: suppressed
  spleen CD11c+/F4/80+/MHCII+ cells: suppressed
[4]; week 19
  complement C3 deposits, diffuse proliferative glomerular lesions and glomerulosclerosis: less
  integrity of the glomerular vasculature (CD31 staining): improved
[4]; week 19, PAS sections
  activity and chronicity scores of nephritis: dose-dependently reduced
